From ChEMBL document CHEMBL4725363 (J Med Chem, 2020) come the findings set out here.

Data set [1] addresses cGMP-specific 3',5'-cyclic phosphodiesterase (Homo sapiens, UniProt O76074). Kind of data set: Inhibition of human PDE5A1 (535-860 residues) expressed in Escherichia coli BL21 incubated for 15 mins using [3H]-cGMP as substrate by liquid scintillation counting method.
Data set [2] deals with Cone cGMP-specific 3',5'-cyclic phosphodiesterase subunit alpha' (Homo sapiens, UniProt P51160). Kind of data set: Inhibition of human PDE6C (2-854 residues) expressed in Sf9 cells incubated for 15 mins using [3H]-cGMP as substrate by liquid scintillation counting method.
Data set [3] deals with T1, DNA topoisomerase 1 (Homo sapiens) (UniProt P11387).
T1 sequence (whole entry): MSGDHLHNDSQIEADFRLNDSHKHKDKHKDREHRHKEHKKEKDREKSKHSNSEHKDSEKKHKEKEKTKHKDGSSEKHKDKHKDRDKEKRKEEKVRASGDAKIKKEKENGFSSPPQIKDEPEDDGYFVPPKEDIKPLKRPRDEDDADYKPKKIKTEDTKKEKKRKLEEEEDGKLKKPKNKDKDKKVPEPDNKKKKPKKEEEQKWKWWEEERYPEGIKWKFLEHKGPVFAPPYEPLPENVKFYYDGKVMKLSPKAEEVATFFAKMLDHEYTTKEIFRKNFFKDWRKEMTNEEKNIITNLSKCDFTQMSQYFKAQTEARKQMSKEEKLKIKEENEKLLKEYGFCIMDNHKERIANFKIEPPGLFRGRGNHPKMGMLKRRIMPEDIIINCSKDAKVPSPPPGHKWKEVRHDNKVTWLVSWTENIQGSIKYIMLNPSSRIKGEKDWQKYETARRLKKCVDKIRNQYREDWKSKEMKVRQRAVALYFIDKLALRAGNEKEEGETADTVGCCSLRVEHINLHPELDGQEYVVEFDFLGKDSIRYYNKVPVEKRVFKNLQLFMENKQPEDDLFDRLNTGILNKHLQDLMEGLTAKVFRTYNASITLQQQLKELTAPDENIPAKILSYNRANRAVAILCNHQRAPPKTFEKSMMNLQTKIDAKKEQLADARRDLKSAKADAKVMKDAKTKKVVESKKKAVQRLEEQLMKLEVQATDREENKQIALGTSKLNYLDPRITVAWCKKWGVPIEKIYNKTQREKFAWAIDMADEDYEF
Kind of data set: Inhibition of Top (unknown origin) mediated supercoiled DNA relaxation at 100 uM.

The target of data set [4] is cAMP and cAMP-inhibited cGMP 3',5'-cyclic phosphodiesterase 10A (Homo sapiens, UniProt Q9Y233). As to the kind of experiment: Inhibition of human PDE10A catalytic domain (449 to 770 residues) using [3H]-cAMP as substrate after 15 mins by liquid scintillation counting method.
Data set [5] addresses Dual 3',5'-cyclic-AMP and -GMP phosphodiesterase 11A (Homo sapiens, UniProt Q9HCR9). As to the kind of experiment: Inhibition of PDE11A catalytic domain (unknown origin) using [3H]-cAMP or [3H]-[…] as substrate after 15 mins by liquid scintillation counting method.
A short description of data set [6]: Half life in Sprague-Dawley rat at 2.5 mg/kg, iv after 24 hrs by LC-MS/MS analysis. It is filed as ADME, organism-based. To be noted: in vivo.
Data set [7] can be described thus: Tmax in Sprague-Dawley rat at 2.5 mg/kg, iv after 24 hrs by LC-MS/MS analysis. Particulars: in vivo. It is filed as ADME, organism-based.
Data set [8] can be described thus: MRT (0 to t) in Sprague-Dawley rat at 2.5 mg/kg, iv after 24 hrs by LC-MS/MS analysis. The data set is classed as ADME, organism-based. Particulars: in vivo.
The nature of data set [9]: Half life in Sprague-Dawley rat at 5 mg/kg, po after 24 hrs by LC-MS/MS analysis. The data set is classed as ADME, organism-based. Particulars: in vivo.
A short description of data set [10]: AUC (0 to t) in Sprague-Dawley rat at 5 mg/kg, po after 24 hrs by LC-MS/MS analysis. It is filed as ADME, organism-based. Also on record: route oral, time 24 hrs, dose 5 mg/kg. Particulars: in vivo.
Data set [11] is described as follows: AUC (0 to infinity) in Sprague-Dawley rat at 5 mg/kg, po after 24 hrs by LC-MS/MS analysis. The data set is classed as ADME, organism-based. Also on record: route oral, time 24 hrs, dose 5 mg/kg. To be noted: in vivo.
Data set [12] in a line: Inhibition of human PDE5A1 D563A mutant expressed in Escherichia coli BL21 incubated for 15 mins using [3H]-cGMP as substrate by liquid scintillation counting method.
Data set [13] can be described thus: Acute toxicity in KM mouse at 1000 to 1500 mg/kg, po administered as single dose measured every 24 hrs for 14 days. The data set is classed as organism-based. To be noted: in vivo, 336 h, dose 1000-1500 mg/kg, time 14 day.
For data set [14], the system named is Rattus norvegicus. As to the kind of experiment: Suppression of hypertension pressure in Wistar rat model of pulmonary hypertension at 20 mg/kg/day, po for 3 weeks. The data set is classed as functional, organism-based.
Data set [15] relates to Rattus norvegicus. As to the kind of experiment: Suppression of hypertension pressure in Wistar rat model of pulmonary hypertension assessed as reduction in MCT-induced wall thickness of small pulmonary arteries at 20 mg/kg/day, po for 3 weeks. The data set is classed as functional, organism-based.
Data set [16] concerns Rattus norvegicus. Kind of data set: Suppression of hypertension pressure in Wistar rat model of pulmonary hypertension assessed as dilation of small pulmonary vessels arteries at 20 mg/kg/day, po for 3 weeks by H and E staining based microscopy. The data set is classed as functional, organism-based.
Another data set concerns the target T2, Cytochrome P450 1A2 (Homo sapiens, UniProt P05177).
T2 sequence (P05177 whole entry): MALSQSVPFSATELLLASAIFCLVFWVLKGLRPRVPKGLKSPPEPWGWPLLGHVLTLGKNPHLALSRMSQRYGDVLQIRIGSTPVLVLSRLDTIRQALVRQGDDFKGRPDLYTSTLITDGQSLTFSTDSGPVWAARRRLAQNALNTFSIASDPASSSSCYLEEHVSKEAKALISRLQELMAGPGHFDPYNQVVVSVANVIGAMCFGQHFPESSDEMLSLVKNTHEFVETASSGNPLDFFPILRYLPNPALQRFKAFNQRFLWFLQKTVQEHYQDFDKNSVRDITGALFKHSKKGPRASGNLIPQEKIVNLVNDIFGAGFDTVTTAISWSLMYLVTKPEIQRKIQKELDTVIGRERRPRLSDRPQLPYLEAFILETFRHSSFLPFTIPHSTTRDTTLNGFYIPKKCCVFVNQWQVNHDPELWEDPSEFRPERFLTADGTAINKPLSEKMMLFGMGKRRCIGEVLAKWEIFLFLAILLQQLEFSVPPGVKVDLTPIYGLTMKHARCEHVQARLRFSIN
As to the kind of experiment: Inhibition of CYP1A2 (unknown origin). It is filed as ADME.

In the next data set the target is Cytochrome P450 2C9 (Homo sapiens, UniProt P11712). Kind of data set: Inhibition of CYP2C9 (unknown origin). The data set is classed as ADME.
For a further data set, the target named is Cytochrome P450 3A4 (Homo sapiens, UniProt P08684). As to the kind of experiment: Inhibition of CYP3A4 (unknown origin). It is filed as ADME.
Data set [17] deals with Voltage-gated inwardly rectifying potassium channel KCNH2 (Homo sapiens, UniProt Q12809). As to the kind of experiment: Inhibition of human ERG expressed in CHO cells by patch-clamp electrophysiology method. It is filed as cell-based. Background: Patch clamp records ionic current or voltage across a cell membrane.
Data set [18] in a line: Acute toxicity in KM mouse at 1000 to 1500 mg/kg, po administered as single dose measured every 24 hrs for 14 days relative to control. The data set is classed as organism-based. Particulars: in vivo, 336 h, dose 1000-1500 mg/kg, time 14 day.

Each structure is given as a SMILES string. Active and inactive are the calls of the source. No cut-off for these calls is given here.

Sequence of Cytochrome P450 2C9 (P11712 whole entry): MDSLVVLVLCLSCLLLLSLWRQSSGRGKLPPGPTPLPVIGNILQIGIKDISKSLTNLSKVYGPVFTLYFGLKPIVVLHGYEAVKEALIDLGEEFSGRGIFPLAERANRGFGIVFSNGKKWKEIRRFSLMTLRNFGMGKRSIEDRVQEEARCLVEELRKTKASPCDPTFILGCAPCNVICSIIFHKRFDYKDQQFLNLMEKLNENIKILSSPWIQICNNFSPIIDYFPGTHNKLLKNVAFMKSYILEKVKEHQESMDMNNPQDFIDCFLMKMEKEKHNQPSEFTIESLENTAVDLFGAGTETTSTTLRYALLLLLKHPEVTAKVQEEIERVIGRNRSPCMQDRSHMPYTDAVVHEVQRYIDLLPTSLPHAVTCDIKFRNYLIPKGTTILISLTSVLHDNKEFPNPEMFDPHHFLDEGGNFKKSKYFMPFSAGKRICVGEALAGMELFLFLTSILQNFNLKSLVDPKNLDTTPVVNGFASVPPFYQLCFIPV
Sequence of cAMP and cAMP-inhibited cGMP 3',5'-cyclic phosphodiesterase 10A (Q9Y233 whole entry, the tested form may be a part): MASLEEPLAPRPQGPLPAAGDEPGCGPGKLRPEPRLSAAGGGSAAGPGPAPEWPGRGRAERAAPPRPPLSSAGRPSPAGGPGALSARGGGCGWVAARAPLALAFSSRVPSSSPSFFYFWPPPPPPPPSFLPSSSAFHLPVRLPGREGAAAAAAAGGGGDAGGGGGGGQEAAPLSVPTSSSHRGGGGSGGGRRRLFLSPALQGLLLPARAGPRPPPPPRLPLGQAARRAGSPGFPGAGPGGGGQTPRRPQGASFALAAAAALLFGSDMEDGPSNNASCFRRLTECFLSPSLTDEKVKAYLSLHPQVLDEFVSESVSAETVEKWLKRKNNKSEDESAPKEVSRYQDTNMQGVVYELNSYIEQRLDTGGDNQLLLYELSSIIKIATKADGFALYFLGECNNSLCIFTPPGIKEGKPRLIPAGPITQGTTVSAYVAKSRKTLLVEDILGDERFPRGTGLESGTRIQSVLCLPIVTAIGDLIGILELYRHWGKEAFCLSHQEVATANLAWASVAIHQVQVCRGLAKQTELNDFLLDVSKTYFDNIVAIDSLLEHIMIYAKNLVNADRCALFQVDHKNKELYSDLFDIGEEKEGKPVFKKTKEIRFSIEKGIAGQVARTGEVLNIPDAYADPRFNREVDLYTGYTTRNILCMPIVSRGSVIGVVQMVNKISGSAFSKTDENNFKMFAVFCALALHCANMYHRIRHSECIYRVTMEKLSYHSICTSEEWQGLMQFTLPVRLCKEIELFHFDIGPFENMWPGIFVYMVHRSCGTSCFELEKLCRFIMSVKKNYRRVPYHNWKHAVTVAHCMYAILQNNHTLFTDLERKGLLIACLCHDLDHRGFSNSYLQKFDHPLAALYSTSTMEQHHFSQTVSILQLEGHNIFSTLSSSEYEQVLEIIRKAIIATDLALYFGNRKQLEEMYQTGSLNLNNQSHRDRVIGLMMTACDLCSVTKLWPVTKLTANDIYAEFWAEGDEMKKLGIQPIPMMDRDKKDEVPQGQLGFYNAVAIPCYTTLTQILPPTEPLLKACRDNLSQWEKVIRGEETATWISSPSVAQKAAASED
Sequence of Cone cGMP-specific 3',5'-cyclic phosphodiesterase subunit alpha' (P51160 whole entry, the tested form may be a part): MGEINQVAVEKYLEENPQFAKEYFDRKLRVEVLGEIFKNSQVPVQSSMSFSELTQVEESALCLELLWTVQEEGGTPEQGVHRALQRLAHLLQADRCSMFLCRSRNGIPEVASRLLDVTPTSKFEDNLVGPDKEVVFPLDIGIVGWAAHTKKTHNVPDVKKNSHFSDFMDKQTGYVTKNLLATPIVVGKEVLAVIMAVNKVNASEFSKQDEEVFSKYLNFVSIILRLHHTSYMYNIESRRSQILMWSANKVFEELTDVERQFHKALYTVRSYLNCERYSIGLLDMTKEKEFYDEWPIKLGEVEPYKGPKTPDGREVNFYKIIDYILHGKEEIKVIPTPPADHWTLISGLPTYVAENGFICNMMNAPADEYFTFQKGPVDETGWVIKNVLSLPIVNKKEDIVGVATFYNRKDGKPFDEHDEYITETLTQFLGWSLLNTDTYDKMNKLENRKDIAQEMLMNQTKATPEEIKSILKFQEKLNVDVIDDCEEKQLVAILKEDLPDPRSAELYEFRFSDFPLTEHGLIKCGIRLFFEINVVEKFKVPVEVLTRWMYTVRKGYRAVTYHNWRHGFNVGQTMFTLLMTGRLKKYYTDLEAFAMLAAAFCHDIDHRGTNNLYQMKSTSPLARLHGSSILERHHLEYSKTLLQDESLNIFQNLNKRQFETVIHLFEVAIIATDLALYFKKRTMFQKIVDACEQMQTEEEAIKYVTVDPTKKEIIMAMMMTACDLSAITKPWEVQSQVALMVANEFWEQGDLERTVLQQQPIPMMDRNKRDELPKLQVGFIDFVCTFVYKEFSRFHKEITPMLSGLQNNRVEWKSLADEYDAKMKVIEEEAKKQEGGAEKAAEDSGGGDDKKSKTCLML
Sequence of Cytochrome P450 3A4 (P08684 whole entry): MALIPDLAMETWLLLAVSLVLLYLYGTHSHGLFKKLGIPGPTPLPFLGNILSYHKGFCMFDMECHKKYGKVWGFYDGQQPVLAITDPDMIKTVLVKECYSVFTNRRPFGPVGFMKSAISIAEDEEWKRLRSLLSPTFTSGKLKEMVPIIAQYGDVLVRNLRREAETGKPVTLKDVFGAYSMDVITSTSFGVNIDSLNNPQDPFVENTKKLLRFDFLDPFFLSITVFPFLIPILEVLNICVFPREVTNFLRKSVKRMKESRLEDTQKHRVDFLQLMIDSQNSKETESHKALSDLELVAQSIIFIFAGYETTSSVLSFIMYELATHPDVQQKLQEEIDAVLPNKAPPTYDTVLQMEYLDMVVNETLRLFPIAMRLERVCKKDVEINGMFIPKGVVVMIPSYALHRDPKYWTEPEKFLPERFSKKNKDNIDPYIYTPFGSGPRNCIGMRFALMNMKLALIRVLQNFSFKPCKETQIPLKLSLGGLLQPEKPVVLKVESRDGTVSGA
Sequence of Dual 3',5'-cyclic-AMP and -GMP phosphodiesterase 11A (Q9HCR9 whole entry, the tested form may be a part): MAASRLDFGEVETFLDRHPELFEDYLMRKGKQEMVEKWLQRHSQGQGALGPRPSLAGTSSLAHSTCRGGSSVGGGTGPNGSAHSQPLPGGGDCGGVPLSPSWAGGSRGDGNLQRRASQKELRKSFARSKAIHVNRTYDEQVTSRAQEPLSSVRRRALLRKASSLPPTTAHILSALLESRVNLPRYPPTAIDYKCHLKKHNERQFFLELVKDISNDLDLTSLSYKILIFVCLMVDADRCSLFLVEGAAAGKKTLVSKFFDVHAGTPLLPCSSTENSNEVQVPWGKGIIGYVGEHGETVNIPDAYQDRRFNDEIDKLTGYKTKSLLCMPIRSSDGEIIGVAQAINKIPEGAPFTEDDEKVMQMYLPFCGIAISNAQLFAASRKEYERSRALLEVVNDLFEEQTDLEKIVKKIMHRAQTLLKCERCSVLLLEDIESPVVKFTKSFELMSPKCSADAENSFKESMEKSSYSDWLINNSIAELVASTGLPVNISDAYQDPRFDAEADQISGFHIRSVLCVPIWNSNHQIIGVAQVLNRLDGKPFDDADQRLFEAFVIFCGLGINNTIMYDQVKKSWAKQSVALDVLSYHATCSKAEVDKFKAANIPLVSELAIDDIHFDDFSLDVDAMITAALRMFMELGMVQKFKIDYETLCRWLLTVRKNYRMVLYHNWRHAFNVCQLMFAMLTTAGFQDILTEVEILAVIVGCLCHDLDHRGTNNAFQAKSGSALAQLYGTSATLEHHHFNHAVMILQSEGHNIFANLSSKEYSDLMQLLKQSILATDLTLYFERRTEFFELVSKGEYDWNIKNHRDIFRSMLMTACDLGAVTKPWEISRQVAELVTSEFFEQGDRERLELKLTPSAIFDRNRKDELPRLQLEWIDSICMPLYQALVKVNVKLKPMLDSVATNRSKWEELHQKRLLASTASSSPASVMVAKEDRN
Sequence of Voltage-gated inwardly rectifying potassium channel KCNH2 (Q12809 whole entry): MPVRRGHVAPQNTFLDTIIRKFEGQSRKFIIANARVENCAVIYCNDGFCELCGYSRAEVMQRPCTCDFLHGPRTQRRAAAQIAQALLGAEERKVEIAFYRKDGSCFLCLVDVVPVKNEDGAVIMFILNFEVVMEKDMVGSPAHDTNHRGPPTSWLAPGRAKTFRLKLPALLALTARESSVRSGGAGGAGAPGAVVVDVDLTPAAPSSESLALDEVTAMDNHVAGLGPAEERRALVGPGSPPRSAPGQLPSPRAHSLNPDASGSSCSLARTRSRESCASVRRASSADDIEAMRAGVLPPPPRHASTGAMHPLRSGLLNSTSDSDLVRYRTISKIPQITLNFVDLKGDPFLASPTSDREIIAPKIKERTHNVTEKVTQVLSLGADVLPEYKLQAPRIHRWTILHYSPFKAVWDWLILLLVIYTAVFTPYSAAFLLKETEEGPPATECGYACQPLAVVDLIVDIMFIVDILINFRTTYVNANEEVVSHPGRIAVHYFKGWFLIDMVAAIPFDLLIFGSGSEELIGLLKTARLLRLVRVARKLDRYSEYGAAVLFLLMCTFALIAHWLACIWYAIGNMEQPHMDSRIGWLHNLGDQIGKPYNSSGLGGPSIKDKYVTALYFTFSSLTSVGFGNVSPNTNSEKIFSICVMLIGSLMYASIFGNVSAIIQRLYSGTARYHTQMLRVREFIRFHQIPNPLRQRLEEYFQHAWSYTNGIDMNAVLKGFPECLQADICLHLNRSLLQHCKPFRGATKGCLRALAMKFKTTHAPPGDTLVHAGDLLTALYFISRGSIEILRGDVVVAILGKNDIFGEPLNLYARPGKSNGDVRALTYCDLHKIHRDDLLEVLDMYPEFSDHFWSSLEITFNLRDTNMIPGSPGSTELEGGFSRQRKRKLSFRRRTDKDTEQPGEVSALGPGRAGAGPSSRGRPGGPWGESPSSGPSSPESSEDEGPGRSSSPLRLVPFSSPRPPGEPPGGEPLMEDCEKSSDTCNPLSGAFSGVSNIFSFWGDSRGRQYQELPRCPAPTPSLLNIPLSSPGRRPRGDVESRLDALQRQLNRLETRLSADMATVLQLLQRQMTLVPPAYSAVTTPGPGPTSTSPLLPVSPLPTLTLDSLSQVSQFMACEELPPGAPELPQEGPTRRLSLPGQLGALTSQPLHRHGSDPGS

Turning to `COc1ccc2c3c([nH]c2c1)[C@@H]1N(CC3)C(=O)c2c(OC)cccc2N1C`, the IC50 in data set [1] was 0.042 µM; in data set [2] it was greater than 150 µM; in data set [4], 3 µM; in data set [5], greater than 30 µM; in [12], 2.48 µM; at Cytochrome P450 1A2 it was 10 µM. For the same molecule, the IC50 is 10 µM against Cytochrome P450 2C9, 10 µM against Cytochrome P450 3A4 and 20 µM in [17]. In data set [3], the inhibition result was “inactive”. Further, the half-life in data set [6] was 13.2 min; in [9] it was 85.8 min. Further, the Tmax in data set [7] stood at 4.98 min. Besides, in data set [8], the MRT last at 24 h turned out to be 8.4 min. In data set [10], this molecule came in with an AUC(0-t) at 24 h of 146 ng·h/mL. The molecule also registered an AUC(0-inf) in [11] of 155 ng·h/mL. Besides, the figures for the Activity result in data set [13] and in data set [18] were “Non-Toxic” and greater than 1.5 g/kg, respectively. Moreover, the result with Rattus norvegicus [14], with Rattus norvegicus [15] and in the data set with Rattus norvegicus [16] was Active.

For orientation: IC50 means the concentration that gives 50% inhibition. As usually defined, the half-life is how long it takes for the measured level to halve. A high value points to slow loss. Broadly, the Tmax is the time from dosing to the highest level. The term MRT last denotes a mean duration of stay, worked out from the concentration-time curve. The AUC(0-t) is the area under the concentration-time curve up to a stated or last time point. Lower therefore signals less exposure. As a reminder, the AUC(0-inf) is total exposure, with the tail of the curve extrapolated. Lower therefore signals less exposure.
